Structures are written as SMILES.

The term GI50 denotes the concentration giving 50% growth inhibition. One may read the EC50 as the midpoint of the concentration-response curve. A lower EC50 goes with higher potency in that assay.

The subject of one test is BT474 cells. As to the kind of experiment: Cellular proliferation in BT474 cells (CellTiter Glo). The class given is cell-based, human. The settings on record: 120 h, redosed after 72 h. The procedure: (§1) In addition to the engineered cell lines, the following cell lines were used: BT474 (human breast carcinoma), N87 (human gastric carcinoma), NCI-H1781 (human lung adenocarcinoma), and A431 (human epidermoid carcinoma); all cell lines were obtained from the American Type Culture Collection (ATCC, Manassas, VA). NCI-H1781 were grown in complete RPMI 1640 (Life Technologies, Carlsbad, CA) supplemented with 15% fetal bovine serum (FBS, Life Technologies, Carlsbad, CA) and 1% Penicillin-Streptomycin (P/S, Life Technologies, Carlsbad, CA). N87 cells were grown in complete RPMI 1640 supplemented with 10% FBS and 1% P/S. BT474 and A431 cells were grown in DMEM (Life Technologies, Carlsbad, CA) supplemented with 10% FBS and 1% P/S. All cells were maintained and propagated in a humidified 5% CO2 incubator at 37° C.
(§2) Cell proliferation in adherent cells was investigated in two HER2 amplified cell lines (BT474, N87), and a HER2VC expressing cell line (NCI-H1781). BT474, NCI-H1781, and N87 were plated in their appropriate growth media supplemented with either 10% FBS (BT474, N87) or 15% FBS (NCI-H1781) and 1% P/S in 96-well white clear-bottom tissue culture plates (Costar, Sigma-Aldrich). The starting cell densities were 3500, 5500, and 5000 cells for BT474, NCI-H1781, and N87 cells, respectively. An 8-point standard curve with varying cell densities (starting at 50000 cells and serially diluting down 2-fold) was prepared for each cell line and read 6 h after plating. Cells were allowed to attach overnight prior to compound treatment. Compound solutions were prepared by serially diluting test compounds in DMSO (Sigma-Aldrich), then diluting 500× in their corresponding serum free media. Cells were treated by adding a 1:1 volume of test compound to a final concentration of […], 0.004, 0.0014, or 0.0005 μM, in 0.1% DMSO and 5% FBS (for BT474 and N87) or 7.5% FBS (NCI-H1781). In BT474 and NCI-H1781, cell media was replaced and cells were redosed with fresh test compound solutions after 72 h. Viability was determined by CellTiter Glo (Promega, Madison, WI) after 72 h for N87 cells, and after 120 h for BT474 and […] cells. The results were converted to cell numbers using a standard curve; growth inhibition (GI50 values) were determined by Graph Pad Prism. […] The results are provided in Table 4, under columns titled “BT474-GI50”, “N87-GI50”, and “NCI-H1781-GI50”.
(In general: Cellular ATP, detected with luciferase, serves as a proxy for viable cell number.)

A further test has as its target T1, HER2VC (G776delinsVC) (Homo sapiens, UniProt P04626, G776C/INS775V).
T1 construct: NCI-H1781 cells which endogenously expresses a HER2 mutant protein; endogenous in cells; host or cells: NCI-H1781
As to the kind of experiment: HER2 signaling (pHER2) in NCI-H1781 cells. The class given is cell-based. The settings on record: 1.5 hr compound, 1% FBS. The procedure:
as §1
(§3) HER2 signaling was assessed in BT474 and N87 cell lines which endogenously overexpress the HER2 wildtype (WT) protein, in NCI-H1781 cells which endogenously expresses a HER2 mutant protein containing a VC insertion in the kinase domain (HER2VC or G776delinsVC), and in engineered cell lines transduced to express the Her2 mutant protein containing the YVMA insertion (Hek293-HER2YVMA and BEAS2B-HER2YVMA).
(§4) BT474, N87, and NCI-H1781 were plated in 96-well tissue-culture treated plates (Corning Costar, Sigma-Aldrich) in full media and incubated overnight. Hek293-HER2YVMA and BEAS2B-HER2YVMA cells were plated in 96-well poly-D-lysine treated plates (BD Bioscience, San Jose, CA). For treatment with test compounds, the media was replaced with corresponding low serum media (1% FBS) containing test compound at 1.1, 0.37, 0.12, 0.041, 0.014, 0.005, 0.0014, 0.0005 μM or DMSO control (0.1%). Cells were incubated with compound for 1.5 hr at 37° C. After compound treatment, the media was removed and cells were lysed for 30 min on ice in complete MSD lysis buffer (prepared using MSD base lysis buffer (Meso-Scale Discovery) supplemented with cOmplete, EDTA-free Protease inhibitor cocktail (Roche), Phosphatase Inhibitor Cocktails 2 and 3 (Sigma-Aldrich), and 1 mM PMSF (Sigma-Aldrich)). Lysates were stored at −70° C. until further analysis.
(§5) HER2 signaling was evaluated using phospho (Tyr1248)/total ErbB2 whole cell lysate MSD plates (Meso-Scale Discovery, Gaithersburg, MD). The phospho HER2 signal was normalized to total HER2 for each sample; results are reported as % DMSO control. The normalized data was fitted using a sigmoidal curve analysis program (Graph Pad Prism version 6) with variable Hill slope to determine EC50 values.
(§6) The HER2 signaling results are provided in Table 4, under columns titled “BT474-pHER2 EC50”, “N87-pHER2 EC50”, and “NCI-H1781-pHER2 EC50”. Hek293-HER2YVMA ins fall under the heading “HEKYVMA-pHER2 EC50”, Ba/F3 HER2YVMA fall under the heading “Ba/F3 YVMA-pHER2 EC50” and BEAS2B-HER2YVMA fall under the heading “BEAS2B YVMA-pHER2 EC50”.

Test [1] deals with T2, HER2 wildtype (WT) protein (Homo sapiens, UniProt P04626).
T2 construct: BT474 and N87 cell lines which endogenously overexpress the HER2 wildtype (WT) protein; endogenous in cells; host or cells: BT474, N87
As to the kind of experiment: HER2 signaling (pHER2 Tyr1248/total HER2 MSD) in N87 cells. The class given is cell-based. As to conditions: 1.5 hr compound, 1% FBS. The procedure: as §1, §3, §4, §5, §6

The next test concerns NCI-H1781 cells. As to the kind of experiment: Cellular proliferation in NCI-H1781 cells (CellTiter Glo). The class given is cell-based, human. As to conditions: 120 h, redosed after 72 h. The procedure:
as §1, §2

The next test concerns N87 cells. As to the kind of experiment: Cellular proliferation in N87 cells (CellTiter Glo). The class given is cell-based, human. The settings on record: 72 h. The procedure:
as §1, §2

[2] abbreviates: Homo sapiens, BT-474, BT474 cells.
Setting [3] is: Homo sapiens, NCI-H1781, NCI-H1781 cells.

T1 sequence (P04626 with tags, fused parts or gaps INS775V/G776C): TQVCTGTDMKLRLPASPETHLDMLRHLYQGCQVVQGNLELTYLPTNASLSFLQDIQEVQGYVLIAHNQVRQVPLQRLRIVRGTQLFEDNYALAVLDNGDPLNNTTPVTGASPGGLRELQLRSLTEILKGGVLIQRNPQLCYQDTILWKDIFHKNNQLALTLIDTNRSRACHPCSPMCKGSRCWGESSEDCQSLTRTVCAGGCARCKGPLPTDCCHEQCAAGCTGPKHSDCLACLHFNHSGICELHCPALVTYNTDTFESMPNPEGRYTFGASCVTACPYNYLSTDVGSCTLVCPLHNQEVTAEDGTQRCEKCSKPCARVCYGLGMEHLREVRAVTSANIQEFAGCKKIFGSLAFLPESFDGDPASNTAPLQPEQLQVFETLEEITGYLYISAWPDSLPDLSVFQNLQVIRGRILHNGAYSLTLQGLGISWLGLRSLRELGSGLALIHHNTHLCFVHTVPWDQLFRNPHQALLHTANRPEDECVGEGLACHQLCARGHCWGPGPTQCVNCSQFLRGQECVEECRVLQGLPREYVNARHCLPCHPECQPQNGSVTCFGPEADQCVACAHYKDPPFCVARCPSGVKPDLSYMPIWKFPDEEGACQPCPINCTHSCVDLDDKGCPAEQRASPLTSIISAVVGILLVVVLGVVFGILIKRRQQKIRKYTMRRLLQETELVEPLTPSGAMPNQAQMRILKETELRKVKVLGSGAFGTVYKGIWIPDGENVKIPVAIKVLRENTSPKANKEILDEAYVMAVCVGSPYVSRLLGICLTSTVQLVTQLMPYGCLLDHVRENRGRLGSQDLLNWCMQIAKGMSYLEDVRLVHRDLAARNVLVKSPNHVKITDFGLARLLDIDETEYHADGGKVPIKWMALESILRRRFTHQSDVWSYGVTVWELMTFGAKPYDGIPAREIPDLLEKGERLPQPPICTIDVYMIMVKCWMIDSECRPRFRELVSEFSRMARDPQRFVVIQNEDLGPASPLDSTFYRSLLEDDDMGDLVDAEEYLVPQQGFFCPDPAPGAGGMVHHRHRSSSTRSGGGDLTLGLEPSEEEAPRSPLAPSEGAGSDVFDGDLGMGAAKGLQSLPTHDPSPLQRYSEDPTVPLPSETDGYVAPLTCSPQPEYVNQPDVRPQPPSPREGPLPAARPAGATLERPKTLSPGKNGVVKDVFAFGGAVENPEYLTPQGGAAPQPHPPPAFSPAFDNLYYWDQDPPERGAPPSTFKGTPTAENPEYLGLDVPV
T2 sequence (P04626 23-1255): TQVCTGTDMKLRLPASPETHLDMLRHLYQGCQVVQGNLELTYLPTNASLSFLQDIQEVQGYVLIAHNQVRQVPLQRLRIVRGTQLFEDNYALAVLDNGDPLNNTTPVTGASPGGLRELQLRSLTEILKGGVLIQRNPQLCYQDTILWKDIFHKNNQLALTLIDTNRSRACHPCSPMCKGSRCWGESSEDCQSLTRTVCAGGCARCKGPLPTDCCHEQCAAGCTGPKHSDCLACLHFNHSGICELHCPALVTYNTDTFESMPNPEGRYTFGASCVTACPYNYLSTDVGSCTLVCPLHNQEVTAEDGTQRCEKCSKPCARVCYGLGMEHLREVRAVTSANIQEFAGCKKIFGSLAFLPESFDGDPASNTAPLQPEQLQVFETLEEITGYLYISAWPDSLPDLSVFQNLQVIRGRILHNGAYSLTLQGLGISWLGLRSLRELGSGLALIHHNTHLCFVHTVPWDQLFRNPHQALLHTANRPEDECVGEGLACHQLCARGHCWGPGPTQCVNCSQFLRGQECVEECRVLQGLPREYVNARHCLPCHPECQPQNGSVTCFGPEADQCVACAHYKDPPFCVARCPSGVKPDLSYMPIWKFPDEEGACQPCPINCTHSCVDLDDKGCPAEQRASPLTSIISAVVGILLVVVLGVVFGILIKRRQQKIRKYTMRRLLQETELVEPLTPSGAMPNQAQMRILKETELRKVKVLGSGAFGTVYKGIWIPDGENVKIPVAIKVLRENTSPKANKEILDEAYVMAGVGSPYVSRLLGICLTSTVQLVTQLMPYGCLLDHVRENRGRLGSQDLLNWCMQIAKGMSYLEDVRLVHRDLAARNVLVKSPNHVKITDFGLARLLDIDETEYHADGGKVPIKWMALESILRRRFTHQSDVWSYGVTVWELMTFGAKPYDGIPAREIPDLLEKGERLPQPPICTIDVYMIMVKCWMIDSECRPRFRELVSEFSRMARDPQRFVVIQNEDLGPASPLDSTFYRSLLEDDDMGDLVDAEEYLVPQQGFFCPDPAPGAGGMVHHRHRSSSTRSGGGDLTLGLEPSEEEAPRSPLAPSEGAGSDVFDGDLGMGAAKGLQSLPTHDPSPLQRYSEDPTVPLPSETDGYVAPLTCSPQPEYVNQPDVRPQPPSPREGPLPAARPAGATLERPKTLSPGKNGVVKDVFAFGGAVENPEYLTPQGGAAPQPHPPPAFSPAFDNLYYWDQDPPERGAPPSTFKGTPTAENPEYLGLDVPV

On to `Cc1ccc(Oc2ccc(Nc3ncnc4sc5c(c34)CN(C(=O)/C=C/CN(C)C)C5)cc2Cl)cn1` [Compound 129, (E)-1-(4-((3-Chloro-4-((6-methylpyridin-3-yl)oxy)phenyl)amino)-5H-pyrrolo[3′,4′:4,5]thieno[2,3-d]pyrimidin-6(7H)-yl)-4-(dimethylamino)but-2-en-1-one], for which the 50% growth inhibitory concentration (GI50) in the test with BT474 cells (setting [2]), in the test with NCI-H1781 cells (setting [3]) and in the test with N87 cells (Homo sapiens) was under 100 nM throughout. In addition, the EC50 (on HER2VC (G776delinsVC); in test [1]) was under 100 nM throughout.

With `Cc1ccc(Oc2ccc(Nc3ncnc4sc5c(c34)CCN(C(=O)/C=C/CN(C)C)C5)cc2C)cn1` [Compound 8, (E)-4-(Dimethylamino)-1-(4-((3-methyl-4-((6-methylpyridin-3-yl)oxy)phenyl)amino)-5,6-dihydropyrido[4′,3′:4,5]thieno[2,3-d]pyrimidin-7(8H)-yl)but-2-en-1-one], the GI50 was under 100 nM with BT474 cells (setting [2]); under 100 nM in the test with NCI-H1781 cells (Homo sapiens, NCI-H1781 cells); under 100 nM with N87 cells (Homo sapiens). In addition, the EC50 (on HER2VC (G776delinsVC); in test [1]) was under 100 nM throughout.

As to `Cc1ccc(Oc2ccc(Nc3ncnc4sc5c(c34)CCN(C(=O)/C=C/CN3CCOCC3)C5)cc2C)cn1` [Compound 17, (E)-1-(4-((3-Methyl-4-((6-methylpyridin-3-yl)oxy)phenyl)amino)-5,6-dihydropyrido[4′,3′:4,5]thieno[2,3-d]pyrimidin-7(8H)-yl)-4-morpholinobut-2-en-1-one], the GI50 in the test with BT474 cells (setting [2]), with NCI-H1781 cells (setting [3]) and in the test with N87 cells (Homo sapiens) was under 100 nM in each case. Further, the EC50 (at HER2VC (G776delinsVC); in test [1]) was under 100 nM each time.

For `Cc1ccc(Oc2ccc(Nc3ncnc4sc5c(c34)C(C)N(C(=O)C=CCN(C)C)C5)cc2C)cn1` (single isomer, unassigned) [Compound 147], the GI50 with BT474 cells (setting [2]), in the test on NCI-H1781 cells (setting [3]) and in the test on N87 cells (Homo sapiens) was under 100 nM in each case. For the same molecule, the EC50 (on HER2VC (G776delinsVC); in test [1]) was under 100 nM throughout.

As for `COc1ccc(Oc2ccc(Nc3ncnc4sc5c(c34)C(C)CN(C(=O)C=CCN(C)C)C5)cc2C)cn1` (single isomer, unassigned) [Compound 160], the GI50 with BT474 cells (BT474 cells), in the test on NCI-H1781 cells (NCI-H1781 cells) and with N87 cells was under 100 nM each time. Moreover, the 50% effective concentration (EC50) (on HER2VC (G776delinsVC); in test [1]) was under 100 nM each time.

As for `COc1ccc(Oc2ccc(Nc3ncnc4sc5c(c34)C(C)CN(C(=O)C=CCN(C)C)C5)cc2C)cn1` (single isomer, unassigned) [Compound 159], the GI50 is under 100 nM with BT474 cells (setting [2]), 100 to 350 nM with NCI-H1781 cells (setting [3]) and under 100 nM in the test on N87 cells (Homo sapiens). For the same molecule, the EC50 is 100 to 350 nM at HER2VC (G776delinsVC) and under 100 nM in test [1].
